Laboratory results taken from patent US6677309B1, “Anti-cancer drug aldehyde conjugate drugs with enhanced cytotoxicity compounds, compositions and methods” (University Technology Corporation, priority 1997, dated 2004).

Legend:
MCF-7/ADR cells = assay: In vitro cytotoxicity, colony formation by crystal violet assay, MCF-7/ADR; settings: for fold higher cytotoxicity against MCF-7/ADR cells relative to the parent drug: relative to the respective parent drug
Experimental: The term IC50 as used herein refers to the concentration of drug which inhibits cell growth by 50%, i.e., 50% of cells are viable at the IC50 concentration relative to a no-drug control.
Cells were incubated with drug for 3 h in RPMI (Roswell Park Memorial Institute) 1640 media containing 10% fetal bovine serum and 1% DMSO. Plates, were developed using the crystal violet assay. […] In all cases percent survival was determined by the extent of colony formation six days after drug treatment.
All tissue culture materials were obtained from Gibco Life Technologies (Grand Island, N.Y.) unless otherwise stated. MCF-7 breast cancer cells were obtained from American Type Culture Collection (Rockville, Md.). […] Both cell lines were maintained in vitro by serial culture in phenol red-free RPMI Media 1640 supplemented with 10% fetal bovine serum (Gemini Bio-Products, Calbasas, Calif.), L-glutamine (2 mM), HEPES buffer (10 mM), penicillin (100 units/mL), and streptomycin (100 μg/mL). […] Cells were maintained at 37° C. in a humidified atmosphere of 5% CO2 and 95% air.
Cells were dissociated with trypsin-EDTA, counted, and suspended in growth media to a concentration of 5×10^3 cells/mL. Cell suspensions were dispensed in 200 μL aliquots into 96-well tissue culture plates. Plates were then incubated for 24 h at 37° C. in a humidified atmosphere of 5% CO2 and 95% air. The media was replaced with 180 μL of growth media prior to addition of the cytotoxic agents.
Concentrations were then corrected by measuring the solution absorbance at 480 nm (ε=11,500/mole anthracycline). The solutions were then serially diluted in DMSO to give a series of 100× working concentration solutions. For each concentration, the 100× solution was diluted 1:10 in serum-free RPMI Media 1640. 20 μL of the resulting […] solution was immediately added to the appropriate lane. Additionally, one lane was treated with 20 μL of 10% DMSO in serum-free RPMI (no drug) and one lane replaced with 200 μL of 1.5 M Tris buffer (no cells). The cells were incubated at 37° C. for 3 h. The drug solutions were removed and 200 μL of fresh growth media was added to each well.
The extent of colony formation was determined by use of a crystal violet staining assay (Gilles, R. J. et al. (1986), “Determination of cell number in monolayer cultures,” Anal. Biochem. 159:109-113; Reile, H. et al. (1990), “Computerized determination of growth kinetic curves and doubling times from cells in microcultures,” Anal. Biochem. 187:262-267). […] The cells were then stained with 75 μL of 0.1% crystal violet in deionized water for 30 min. […] The plates were blotted dry and 200 μL of 70% ethanol in water was added to each well to solublize the dye. The plates were stored at 4° C. until solubilization was complete (about 4 h). The optical density of each well was measured on an ELISA plate reader at 588 nm. Relative colony sizes were determined by comparison of the drug treated lanes to the control lanes.
MCF-7 breast cancer cells were obtained from American Type Culture Collection (Rockville, Md.). MCF-7/ADR adriamycin resistant breast cancer cells were a gift of Dr. William W. Wells (Michigan State University). Both cell lines were maintained in vitro by serial culture in phenol red-free RPMI Media 1640 supplemented with 10% fetal bovine serum (Gemini Bio-Products, Calbasas, Calif.), L-glutamine (2 mM), HEPES buffer ([…]), penicillin (100 units/mL), and streptomycin (100 μg/mL). […] Cells were maintained at 37° C. in a humidified atmosphere of 5% CO2 and 95% air.
These were then diluted 10× with autoclaved Millipore water.

[1] = system: self-complementary DNA octamer (GC)4; assay: Drug-DNA conjugate formation with (GC)4, HPLC; assay type: biochemical; settings: for DNA reacted to form drug-DNA conjugates: 33 μM (GC)4, 33 μM conjugate, 4% DMSO
Experimental: The amount of available formaldehyde was 99 μM (3×33 μM). […] The experiment was also run at 25° C. in pH 6.0 phosphate buffer containing 4% DMSO. […] The ratio for conjugate 1 was assumed to be 24:1, based upon the value for conjugate 2. […] Under these circumstances, the conjugate 1 area was estimated based upon its 480 nm absorbance, assuming the 24:1 ratio for A260:A480.
The formation of drug-DNA conjugates at 25° C. was monitored by HPLC (Method II). […] The experiment was also run in pH 6.0 phosphate buffer containing 4% DMSO.

| SMILES | IC50 (MCF-7/ADR cells; read-out: IC50 Values, MCF-7-ADR, 3 h drug incubation in RPMI 1640, 10% fetal bovine serum, 1% DMSO, colony formation six days after treatment, fresh drug solution) | fold higher cytotoxicity against MCF-7/ADR cells relative to the parent drug (MCF-7/ADR cells) | (GC)4 reacted relative to the equivalent amount of daunorubicin and formaldehyde ([1]; 33 μM (GC)4, 55 μM conjugate, pH 7.4, 25° C., after approximately 1 min) | extent of DNA reaction to drug-DNA conjugates ([1]; 317 μM (GC)4, 357 μM conjugate, pH 7.4 phosphate buffer, 25° C., 41 h) | IC50 fold higher than a fresh solution (MCF-7/ADR cells; MCF-7/ADR, after 20 h in 90% H2O/10% DMSO at 37° C. or 20 h in DMSO at ambient temperature) | fold more toxic to resistant cells with respect to epidoxorubicin, conjugate in equilibrium with its hydrolysis products (MCF-7/ADR cells; MCF-7/ADR, hydrolysed equilibrium mixture) | DNA reacted to form drug-DNA conjugates ([1]; pH 6.0 phosphate buffer, 25° C., 5 h) | DNA reacted to form drug-DNA conjugates ([1]; pH 7.3 phosphate buffer, 25° C., 24 h) | DNA that had formed drug-DNA conjugates ([1]; 398 μM (GC)4, 796 μM conjugate, pH 7.3 phosphate buffer, 25° C., 5 h) |
| --- | --- | --- | --- | --- | --- | --- | --- | --- | --- |
| COc1cccc2c1C(=O)c1c(O)c3c(c(O)c1C2=O)C[C@@](O)(C(C)=O)C[C@@H]3O[C@H]1C[C@H]2[C@H](OCN2CN2CO[C@@H]3[C@H](C)O[C@@H](O[C@H]4C[C@](O)(C(C)=O)Cc5c(O)c6c(c(O)c54)C(=O)c4c(OC)cccc4C6=O)C[C@@H]32)[C@H](C)O1 [DAUNF, bis(3′-N-(3′-N,4′-O-methylenedaunorubicinyl))methane] | 5 nM | 200 fold | four times as much (GC)4 | completely reacted |  |  |  |  |  |
| COc1cccc2c1C(=O)c1c(O)c3c(c(O)c1C2=O)CC(O)(C(=O)CO)CC3OC1CC2C(OCN3CN2COC2C(C)OC(OC4C[C@](O)(C(=O)CO)Cc5c(O)c6c(c(O)c54)C(=O)c4c(OC)cccc4C6=O)CC23)C(C)O1 (stereo partly shown) [EPIF] |  | greater than 120 fold |  |  | 5 fold | greater than 25 fold | 64% | 68% | 91% |
